These are literature values, as cited in patent US6432967B1 (Mayo Foundation for Medical Education & Research, priority 1995, dated 2002).

SMILES strings stand for the structures.

The conditions of the series: in vivo.

For `Nc1ccc(O)c(C(=O)O)c1` [5-ASA, 5-aminosalicylate], the fecal excretion result is given as “approximately 25%”.
